The structures appear in SMILES notation.

One may read the IC50 as the concentration needed to halve the response being measured.

The target of this experiment is SARS2 protease (Severe acute respiratory syndrome coronavirus 2, UniProt P0DTD1). The experiment is described as follows: SARS-CoV-2 protease inhibition assay (SARS2 FRET protease assay). Particulars: SARS-CoV-2 protease 25 nM, FRET, peptide substrate 1.3 μM, 30 minutes at 30° C., compounds 20 μM to 1.0 nM; read-out: IC50. The class given is biochemical.
Regarding `CCCCCCCOC(=O)N[C@@H](CC1CCCCC1)C(=O)N[C@@H](CCC(=O)N1CCOc2ccccc2C1)C(O)P(=O)(OCC)OCC` (stereo partly drawn) [Compound C14, Heptyl ((2S)-3-cyclohexyl-1-(((2S)-1-(diethoxyphosphoryl)-5-(2,3-dihydrobenzo[f][1,4]oxazepin-4(5H)-yl)-1-hydroxy-5-oxopentan-2-yl)amino)-1-oxopropan-2-yl)carbamate], the IC50 is more than 200 µM. Take `O=C[C@H](CCC(=O)N1CCOc2ccc(Cl)cc2C1)NC(=O)[C@H](CC1CCCCC1)NC(=O)OCc1cccc(Cl)c1` [Compound C15, 3-Chlorobenzyl ((S)-1-(((S)-5-(7-chloro-2,3-dihydrobenzo[f][1,4]oxazepin-4(5H)-yl)-1,5-dioxopentan-2-yl)amino)-3-cyclohexyl-1-oxopropan-2-yl)carbamate]: the IC50 is more than 200 µM. In the case of `CCCCCOC(=O)N[C@@H](CC1CCCCC1)C(=O)N[C@H](C=O)CCC(=O)N1CCOc2ccccc2C1` [Compound C16, Pentyl ((S)-3-cyclohexyl-1-(((S)-5-(2,3-dihydrobenzo[f][1,4]oxazepin-4(5H)-yl)-1,5-dioxopentan-2-yl)amino)-1-oxopropan-2-yl)carbamate], the IC50 was 37.8 µM. For `CN(C(=O)CC[C@@H](C=O)NC(=O)[C@H](CC1CCCCC1)NC(=O)OCc1cccc(Cl)c1)C1(Cc2ccccc2)CC1` [Compound C17, 3-Chlorobenzyl ((S)-1-(((S)-5-((1-benzylcyclopropyl)(methyl)amino)-1,5-dioxopentan-2-yl)amino)-3-cyclohexyl-1-oxopropan-2-yl)carbamate], the IC50 came to 2.7 µM. `CCCOC(=O)N[C@@H](CC1CCCCC1)C(=O)N[C@H](C=O)CCC(=O)N1CCOc2ccccc2C1` [Compound C18, Propyl ((S)-3-cyclohexyl-1-(((S)-5-(2,3-dihydrobenzo[f][1,4]oxazepin-4(5H)-yl)-1,5-dioxopentan-2-yl)amino)-1-oxopropan-2-yl)carbamate]: the IC50 stood at 49.3 µM.

On to `CCCOC(=O)N[C@@H](CC1CCCCC1)C(=O)N[C@@H](CCC(=O)N1CCOc2ccccc2C1)C(O)P(=O)(OCC)OCC` (stereo partly drawn) [Compound C19, Propyl ((2S)-3-cyclohexyl-1-(((2S)-1-(diethoxyphosphoryl)-5-(2,3-dihydrobenzo[f][1,4]oxazepin-4(5H)-yl)-1-hydroxy-5-oxopentan-2-yl)amino)-1-oxopropan-2-yl)carbamate], for which the half-maximal inhibitory concentration (IC50) turned out to be 94.3 µM. On to `CC(C)(C)OC(=O)N1CCN(C(=O)CC[C@@H](C=O)NC(=O)[C@H](CC2CCCCC2)NC(=O)OCc2cccc(Cl)c2)CC1c1ccccc1` (stereo partly drawn) [Compound C20, tert-butyl 4-((S)-4-((S)-2-((((3-chlorobenzyl)oxy)carbonyl)amino)-3-cyclohexylpropanamido)-5-oxopentanoyl)-2-phenylpiperazine-1-carboxylate], for which the IC50 is more than 200 µM. Take `CCOP(=O)(OCC)C(O)[C@H](CCC(=O)N1CCOc2ccccc2C1)NC(=O)[C@H](CC1CCCCC1)NC(=O)N1CCc2ccccc21` (stereo partly drawn) [Compound C21, Diethyl ((2S)-2-((S)-3-cyclohexyl-2-(indoline-1-carboxamido)propanamido)-5-(2,3-dihydrobenzo[f][1,4]oxazepin-4(5H)-yl)-1-hydroxy-5-oxopentyl)phosphonate]: the IC50 is more than 200 µM. Consider `CN(C)C(=O)CC[C@@H](C=O)NC(=O)C(CC(C)(C)C)NC(=O)OCc1cccc(Cl)c1` (stereo partly drawn) [Compound C22, 3-Chlorobenzyl (1-(((S)-5-(dimethylamino)-1,5-dioxopentan-2-yl)amino)-4,4-dimethyl-1-oxopentan-2-yl)carbamate], for which the IC50 came to 3.8 µM. For `CC(C)(C)OC(=O)N1CCC(OC(=O)N[C@@H](CC2CCCCC2)C(=O)N[C@H](C=O)CCC(=O)N2CCOc3ccccc3C2)CC1` [Compound C23, Tert-butyl 4-((((S)-3-cyclohexyl-1-(((S)-5-(2,3-dihydrobenzo[f][1, 4]oxazepin-4(5H)-yl)-1,5-dioxopentan-2-yl)amino)-1-oxopropan-2-yl)carbamoyl)oxy)piperidine-1-carboxylate], the IC50 was more than 200 µM. In the case of `CCCCCCCOC(=O)N[C@@H](CC1CCCCC1)C(=O)N[C@H](C=O)CCC(=O)N1CCOc2ccccc2C1` [Compound C24, Heptyl ((S)-3-cyclohexyl-1-(((S)-5-(2,3-dihydrobenzo[f][1,4]oxazepin-4(5H)-yl)-1,5-dioxopentan-2-yl)amino)-1-oxopropan-2-yl)carbamate], the IC50 is more than 200 µM. Take `CC(OC(=O)N[C@@H](CC1CCCCC1)C(=O)N[C@H](C=O)CCC(=O)N(C)CCc1ccccc1)c1cccc(Cl)c1` (stereo partly shown) [Compound C25]: the IC50 was 11.1 µM. On to `CCCCCCOC(=O)N[C@@H](CC1CCCCC1)C(=O)N[C@H](C=O)CCC(=O)N1CCOc2ccccc2C1` [Compound C26, Hexyl ((S)-3-cyclohexyl-1-(((S)-5-(2,3-dihydrobenzo[f][1,4]oxazepin-4(5H)-yl)-1,5-dioxopentan-2-yl)amino)-1-oxopropan-2-yl)carbamate], for which the concentration for half-maximal inhibition (IC50) was more than 200 µM. Take `O=C[C@H](CC1CCN(CCc2ccccc2)C1=O)NC(=O)[C@H](CC1CCCCC1)NC(=O)OCc1cccc(Cl)c1` (stereo partly drawn) [Compound C27, 3-Chlorobenzyl ((2S)-3-cyclohexyl-1-oxo-1-((1-oxo-3-(2-oxo-1-phenethylpyrrolidin-3-yl)propan-2-yl)amino)propan-2-yl) carbamate]: the IC50 is more than 200 µM. Consider `CCOP(=O)(OCC)C(O)[C@H](CCC(=O)N1CCOc2ccccc2C1)NC(=O)[C@H](CC1CCCCC1)NC(=O)OC1CCN(S(C)(=O)=O)CC1` (stereo partly drawn) [Compound C28, 1-(Methylsulfonyl) piperidin-4-yl((2S)-3-cyclohexyl-1-(((2S)-1-(diethoxyphosphoryl)-5-(2,3-dihydrobenzo[f][1,4]oxazepin-4(5H)-yl)-1-hydroxy-5-oxopentan-2-yl)amino)-1-oxopropan-2-yl)carbamate], for which the half-maximal inhibitory concentration (IC50) is more than 200 µM.

On to `CC(C[C@@H](C=O)NC(=O)[C@H](CC1CCCCC1)NC(=O)OCc1cccc(Cl)c1)C(=O)N1CCOc2ccccc2C1` (stereo partly drawn) [Compound C29, 3-Chlorobenzyl ((2S)-3-cyclohexyl-1-(((2S)-5-(2,3-dihydrobenzo[f][1,4]oxazepin-4(5H)-yl)-4-methyl-1,5-dioxopentan-2-yl)amino)-1-oxopropan-2-yl)carbamate], for which the IC50 was more than 200 µM.

Regarding `CS(=O)(=O)N1CCC(OC(=O)N[C@@H](CC2CCCCC2)C(=O)N[C@H](C=O)CCC(=O)N2CCOc3ccccc3C2)CC1` [Compound C30, 1-(Methylsulfonyl) piperidin-4-yl((S)-3-cyclohexyl-1-(((S)-5-(2,3-dihydrobenzo[f][1,4]oxazepin-4(5H)-yl)-1,5-dioxopentan-2-yl)amino)-1-oxopropan-2-yl)carbamate], the IC50 worked out at 42.3 µM. As to `CCOP(=O)(OCC)C(O)[C@H](CCC(=O)N1CCOc2ccccc2C1)NC(=O)[C@H](CC1CCCCC1)NC(=O)N(C)Cc1cccc(Cl)c1` (stereo partly drawn) [Compound C31, Diethyl ((2S)-2-((S)-2-(3-(3-chlorobenzyl)-3-methylureido)-3-cyclohexylpropanamido)-5-(2,3-dihydrobenzo[f][1,4]oxazepin-4(5H)-yl)-1-hydroxy-5-oxopentyl)phosphonate], the IC50 was more than 200 µM. For `CC(=O)N1CCC2(CC1)CC(CC(C=O)NC(=O)[C@H](CC1CCCCC1)NC(=O)OCc1cccc(Cl)c1)C(=O)N2` (stereo partly drawn) [Compound C32, 3-Chlorobenzyl ((2S)-1-((1-(8-acetyl-2-oxo-1,8-diazaspiro[4.5]decan-3-yl)-3-oxopropan-2-yl)amino)-3-cyclohexyl-1-oxopropan-2-yl)carbamate], the IC50 is 0.023 µM.
